From US7855192B2, “Macrolactams by engineered biosynthesis” (Kosan Biosciences, Inc., priority 2007, dated 2010)
Like-named read-outs stand apart in the source and are kept apart here.

Columns and labels:
[1] = system: Hsp70; assay: Induction of Hsp70 in SKBr3 cells as marker of Hsp90 inhibition; type: cell-based, human; conditions: SKBr3 cells continuously exposed to 1 μM test compound
Description: The activity of macrolactams of this invention as Hsp90 inhibitors was confirmed by monitoring the effect of exposure to them on an Hsp90 client protein and a protein induced upon Hsp90 inhibition. […]. The procedure used was that described in Munster et al., Cancer Research 2002, 62, 3132-3137.
[…]. Heat shock protein-70 (“Hsp70”), another protein that performs a chaperone function, is a protein that is induced upon inhibition of Hsp90 (Brodsky & Chiosis, Curr. Topics Med. Chem. 2006, 6 (11), 1215-1225). Thus, the induction of Hsp70 can be used as a marker for the inhibition of Hsp90. […]. GAPDH is an enzyme involved in glycolysis and is expressed constitutively in all cells and is a marker of choice as a loading control in Western Blotting experiments.)

[2] = system: MDA-468; assay: cells; conditions: read-out: Inhibitory Concentration IC50, NQO1 deficient cancer cells
Experimental: (§1) The ability of the macrolactams of this invention to inhibit the growth of cancer cells was evaluated using the procedure of Patel, supra. […] SKOV3 is a human ovarian cancer cell line. […] MV-4-11 is yet another human leukemia cell line (acute myeloid leukemia or AML). […] Where an assay was performed multiple times, the range of values measured is given.
(§2) As noted above, geldanamycin derivatives in the quinone oxidation state are dependent on the enzyme NQO1 to reduce them to their hydroquinone derivatives for enhanced activity as Hsp90 inhibitors. However, some cancer cells are deficient in NQO1 activity and thus unable to effect the quinone-to-hydroquinone conversion.

[3] = system: K-562; assay: cells; conditions: Homo sapiens, K562, read-out: Inhibitory activity against cancer cells IC50
Experimental: as §1

[4] = system: MX-1; assay: cells; conditions: Homo sapiens, MX1, read-out: Inhibitory activity against cancer cells IC50
Experimental: as §1

[5] = system: SKBr3; assay: cells; conditions: Homo sapiens
Experimental: as §1

[6] = system: NCI-ADR; assay: cells; conditions: Homo sapiens, NCI/ADR-RES, read-out: Inhibitory activity against cancer cells IC50
Experimental: as §1

[7] = system: SKOV3; assay: cells; conditions: Homo sapiens, SK-OV-3, read-out: Inhibitory activity against cancer cells IC50
Experimental: as §1

[8] = system: MCF-7; assay: cells; conditions: Homo sapiens
Experimental: as §1

[9] = system: BT-474; assay: cells; conditions: Homo sapiens, BT-474, read-out: Inhibitory activity against cancer cells IC50
Experimental: as §1

[10] = system: RPMI-8226; assay: cells; conditions: Homo sapiens, RPMI-8226, read-out: Inhibitory activity against cancer cells IC50
Experimental: as §1

[11] = system: SKBr3 and MCF7 cancer cells; conditions: with versus without dicoumarol (NQO1 inhibitor)
[12] = system: NCI-H596; assay: cells; conditions: Homo sapiens, NCI-H596, read-out: Inhibitory Concentration IC50, NQO1 deficient cancer cells
Experimental: as §1, §2

[13] = system: MV-4-11; assay: cells; conditions: Homo sapiens, MV4-11, read-out: Inhibitory activity against cancer cells IC50
Experimental: as §1

[14] = system: COLO 205; assay: cells; conditions: Homo sapiens, COLO 205, read-out: Inhibitory activity against cancer cells IC50
Experimental: as §1

[15] = system: HCT-116; assay: cells; conditions: Homo sapiens, HCT-116, read-out: Inhibitory activity against cancer cells IC50
Experimental: as §1

[16] = system: HT-29; assay: cells; conditions: Homo sapiens, HT-29, read-out: Inhibitory activity against cancer cells IC50
Experimental: as §1

[17] = SK-BR-3, read-out: Inhibitory Activity IC50, no dicoumarol added
[18] = SK-BR-3, read-out: Inhibitory activity against cancer cells IC50
[19] = MCF7, read-out: Inhibitory activity against cancer cells IC50

Row | Structure (SMILES) | Induction of Hsp70, gel picture FIG. 5 [1] | IC50 [2] [nM] | IC50 [3] [nM] | IC50 [4] [nM] | IC50 [5, 17] [nM] | IC50 [5, 18] [nM] | IC50 [6] [nM] | IC50 [7] [nM] | IC50 [8, 19] [nM] | IC50 [9] [nM] | IC50 [10] [nM] | Change of Hsp90 inhibitory activity in the presence of dicoumarol [11] | IC50 [12] [nM] | IC50 ([5]; SK-BR-3, read-out: Inhibitory Activity IC50, dicoumarol added) [nM] | IC50 [13] [nM] | IC50 [14] [nM] | IC50 [15] [nM] | IC50 [16] [nM] | IC50 ([8]; MCF7, read-out: Inhibitory Activity IC50, dicoumarol added) [nM] | IC50 ([8]; MCF7, read-out: Inhibitory Activity IC50, no dicoumarol added) [nM]
1 | C=CCNC1=C2C[C@@H](C)C[C@H](OC)[C@H](O)[C@@H](C)/C=C(\C)[C@H](OC(N)=O)[C@@H](OC)/C=C\C=C(/C)C(=O)NC(=CC1=O)C2=O [Compound 17-AAG, 17-allylamino-17-demethoxygeldanamycin, reference compound] | Hsp70 was induced |  |  |  |  |  |  |  |  |  |  |  |  |  |  |  |  |  |  | 
2 | CO[C@H]1C[C@H](C)Cc2cc(cc(Cl)c2O)NC(=O)/C(C)=C/CC[C@H](OC)[C@@H](OC(N)=O)/C(C)=C/[C@H](C)[C@H]1O [III-a] | Hsp70 was induced | 90 | 74 | 42 | 39 | 36 to 145 | 640 to 1400 | 102 to 170 | 53 to 60 | 57 | 42 | remained substantially unchanged |  |  |  |  |  |  |  | 
3 | COC1CC/C=C(\C)C(=O)Nc2cc(F)c(O)c(c2)C[C@@H](C)C[C@H](OC)[C@H](O)[C@@H](C)/C=C(\C)[C@@H]1OC(N)=O (stereo partly drawn) [III-d] | Hsp70 was induced | 100 | 290 | 66 | 42 | 34 to 80 | 3200 to 5000 | 230 to 237 | 73 to 160 | 80 | 66 | remained substantially unchanged | 310 | 69 | 31 to 32 | 38 | 280 to 290 | 110 | 161 | 112
4 | CO[C@H]1C[C@H](C)Cc2cccc(c2)NC(=O)/C(C)=C/CC[C@H](OC)[C@@H](OC(N)=O)/C(C)=C/[C@H](C)[C@H]1O [III-h] |  |  |  |  |  | 90 to 110 |  | 318 | 138 to 140 |  |  |  |  |  |  | 180 | 240 to 242 | 220 |  | 
5 | CO[C@H]1C[C@H](C)Cc2cc(ccc2O)NC(=O)/C(C)=C/CC[C@H](OC)[C@@H](OC(N)=O)/C(C)=C/[C@H](C)[C@H]1O [III-i] |  |  |  |  |  | 830 |  |  | 600 |  |  |  |  |  |  |  | 1100 |  |  | 
6 | CO[C@H]1/C=C\C=C(/C)C(=O)Nc2ccc(O)c(c2)C[C@@H](C)C[C@H](OC)[C@H](O)[C@@H](C)/C=C(\C)[C@@H]1OC(N)=O [IV-a] |  |  |  |  |  | 90 |  |  |  |  |  |  |  |  |  |  | 177 |  |  | 
7 | CO[C@H]1/C=C\C=C(/C)C(=O)Nc2cc(Cl)c(O)c(c2O)C[C@@H](C)C[C@H](OC)[C@H](O)[C@@H](C)/C=C(\C)[C@@H]1OC(N)=O [IV-b] |  | 450 | 1400 | 440 |  | 400 to 444 | 10000 | 340 to 360 |  | 140 | 240 |  | 815 |  |  |  | 840 |  |  | 
